According to paper PMC10683482, “Offsetting Low-Affinity Carbohydrate Binding with Covalency to Engage Sugar-Specific Proteins for Tumor-Immune Proximity Induction” (ACS Central Science, 2023):
Where two headings read alike, the source gives them in different places.

System: serum polyclonal antirhamnose antibodies (human IgG)
Assay: BLI affinity of rhamnose probes for polyclonal human IgG
Format: binding
Conditions: for kon: anti-rhamnose assumed 3% of total IgG; for koff: dissociation in 100 mM L-rhamnose
Excerpt: We began by synthesizing antirhamnose affinity probes consisting of α-O/α-S and β-S rhamnose glycosides functionalized with a propargyl group for CuAAC-mediated coupling to a biotin TBD (compounds 1–3, Figure 1A and Scheme S1). This enabled rhamnose immobilization onto streptavidin surfaces and subsequent antibody binding studies. We used biolayer interferometry (BLI) to estimate and compare the apparent affinity of serum polyclonal antirhamnose antibodies for each rhamnose affinity probe (Figure 1B). […] Next, biosensors were submerged in a buffer containing free rhamnose competitor, and dissociation kinetics were measured (Figure 1B, Dissociation). The dissociation buffer contained 100 mM rhamnose competitor to inhibit avidity-based antibody rebinding, which interferes with koff measurements. […] In the context of proximity-inducing molecule development, this low monovalent sugar-binding affinity will ultimately limit ternary complex formation. […] The confirmation of low affinity binding also supports why multivalency has been historically required to efficiently engage antirhamnose antibodies for tumor-immune proximity induction and engage sugar binding receptors in general.
Figure 1 Affinity determination of endogenous and monoclonal antibody sources for L-rhamnose glycoside variants. A. Chemical structures of rhamnose affinity probes. B/C. Approximation of antirhamnose antibody binding affinity for probes 1–3 using biolayer interferometry. B. Purified human serum IgG is used to estimate the affinity of endogenous polyclonal serum antirhamnose antibodies for each affinity probe 1–3. C. Monoclonal anti-23F antibody is used to estimate the potential affinity of vaccine-induced antirhamnose antibodies for each affinity probe 1–3. […] Association was monitored for 900 (B) or 600 (C) seconds. The loaded biosensor probe was then dipped into a dissociation solution of 100 mM L-rhamnose for 600 s. Association curves were fit to a two-phase association model in GraphPad Prism using Kfast to calculate kon. Dissociation curves were similarly fit to a two-phase decay using Kfast to calculate koff. TEXT PRINTED IN THE PICTURE: (B) no label printed: Polyclonal Human IgG: Kd ≈ 7 x10^-5 M | (C) no label printed: Monoclonal Anti-23F: Kd ≈ 6 x10^-6 M DOUBTS OF THE COPYIST ABOUT THIS PICTURE: Panel B, Kd ≈ 7 x10^-5 M: printed once in the plot with no link to a single curve, so it is unclear which of (1) α–O, (2) α–S and (3) β–S it applies to / Panel C, Kd ≈ 6 x10^-6 M: printed once in the plot with no link to a single curve, so it is unclear which of (1) α–O, (2) α–S and (3) β–S it applies to […]
General Notes and Materials […]
Biolayer Interferometry (BLI) General notes and Materials
IgG from human serum was purchased from Innovative Research (IHUI GGAP1000MG). Anti -23F antibody was purchased fr om Creative Biolabs (PABX -173). Biolayer Interferometry (BLI) was conducted using a ForteBio Octet Red96, and streptavidin biosensors (Sartorius - 18-5019) or ProG biosensors (Sartorius – 18-5082). For quench, a 5% skim milk (Nestle Carnation Instant Skim Milk) solution in 1X kinetics buffer was used. The instrument was set at 25 °C, with 1000 RPM, and acquisition rate of 5 Hz.
Each well of a black well plate (Greiner Bio -One - 655086) was filled with 200 µL of appropriate solution.
Dissociation buffer was comprised of L-rhamnose (100 mM, Sigma Aldrich – R3875-10G) in 1X kinetics buffer to reduce avidity contribution to dissociation rate (koff).
SDS-PAGE General notes and Materials […]
Carboxyfluorescein was purchased from Sigma Aldrich (21877 -5G-F). IgG from human serum was purchased from Innovative Research (IHUIGGAP1000MG). Anti -23F antibody was purchased from Creative Biolabs (PABX -173). Laemellie Buffer (2x) was purchased from Sigma Aldrich (S3401 -10VL).
Pre-cast Tris-Glycine Gels (4-20%) were purchased from Fisher Scientific (XP04202BOX). Standard protein ladder was purchased from Bio Rad (1610363). […]

[1] = average of three IgG concentrations, read-out: Avg Kd

C[C@@H]1O[C@@H](OCc2cn(CCOCCNC(=O)OCCOCCOCCOCCOCCOCCOCCOCCNC(=O)CCCC[C@@H]3SC[C@@H]4NC(=O)N[C@@H]43)nn2)[C@H](O)[C@H](O)[C@H]1O [compound 1]
kon (26.2 µM IgG): 20749 M⁻¹ s⁻¹ | koff (26.2 µM IgG): 1.199 s⁻¹ | Kd (26.2 µM IgG, read-out: Kd): 58 µM | kon (52.5 µM IgG): 13810 M⁻¹ s⁻¹ | koff (52.5 µM IgG): 1.112 s⁻¹ | Kd (52.5 µM IgG, read-out: Kd): 81 µM | kon (105 µM IgG): 8235 M⁻¹ s⁻¹ | koff (105 µM IgG): 1.058 s⁻¹ | Kd (105 µM IgG, read-out: Kd): 128 µM | Kd [1]: 89 ± 36 µM

C[C@@H]1O[C@@H](SCc2cn(CCOCCNC(=O)OCCOCCOCCOCCOCCOCCOCCOCCNC(=O)CCCC[C@@H]3SC[C@@H]4NC(=O)N[C@@H]43)nn2)[C@H](O)[C@H](O)[C@H]1O [compound 2]
kon (26.2 µM IgG): 21981 M⁻¹ s⁻¹ | koff (26.2 µM IgG): 1.103 s⁻¹ | Kd (26.2 µM IgG, read-out: Kd): 50 µM | kon (52.5 µM IgG): 14298 M⁻¹ s⁻¹ | koff (52.5 µM IgG): 0.97 s⁻¹ | Kd (52.5 µM IgG, read-out: Kd): 68 µM | kon (105 µM IgG): 8194 M⁻¹ s⁻¹ | koff (105 µM IgG): 0.8262 s⁻¹ | Kd (105 µM IgG, read-out: Kd): 101 µM | Kd [1]: 73 ± 26 µM
